27 molecules from patent US9562053B2, “Benzo-fused heterocyclic derivatives useful as agonists of GPR120” (Janssen Pharmaceutica NV, priority 2013, dated 2017) can be followed below.

The EC50 is the concentration needed to bring the measured effect to its halfway point.

In the assay the target is T1, Human GPR120 short form (Homo sapiens, UniProt Q5NUL3).
T1 construct: expressed in transfected cells
T1 sequence (Q5NUL3 1-361): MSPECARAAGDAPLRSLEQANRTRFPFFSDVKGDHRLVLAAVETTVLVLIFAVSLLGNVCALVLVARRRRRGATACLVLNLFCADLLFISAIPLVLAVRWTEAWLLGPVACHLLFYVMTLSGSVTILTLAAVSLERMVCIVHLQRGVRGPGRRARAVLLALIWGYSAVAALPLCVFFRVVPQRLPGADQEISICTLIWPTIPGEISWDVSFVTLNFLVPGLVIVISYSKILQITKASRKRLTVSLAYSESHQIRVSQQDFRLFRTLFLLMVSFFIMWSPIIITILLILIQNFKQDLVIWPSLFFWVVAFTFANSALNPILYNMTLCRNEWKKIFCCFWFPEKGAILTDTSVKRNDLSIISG
Description: Human GPR120 in Calcium Flux Assay, Procedure Calcium A (2500 cells/well). It counts as cell-based. The gist of the method:
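HEK293 cells stably expressing GPR120 short isoform, 2500 cells/well, serum-starved 1 h, loaded with Fluo-4 NW plus probenecid (30 min 37 °C, 15 min RT). Compounds prepared at 0.012–100 μM, 0.2% DMSO final. FLIPR calcium signal over 300 s as Fmax−Fmin; EC50 from variable-slope fit (Hill <2).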
A general note: Calcium assays in cells follow changes in intracellular calcium, usually with a dye or a luminescent sensor.
Consider `Cc1c(CCC(=O)O)ccc(OCc2cc(Cl)cc3cc(C=CF)oc23)c1C` (mixture of isomers) [Compound 88, 3-(4-((5-Chloro-2-(2-fluorovinyl)benzofuran-7-yl)methoxy)-2,3-dimethylphenyl)propanoic acid], for which the EC50 came out at 147 nM. For `Cc1c(CCC(=O)O)ccc(OCc2cc(OC(F)(F)F)cc3cc(C=CF)oc23)c1C` (mixture of isomers) [Compound 97, 3-(4-{[2-(2-Fluoroethenyl)-5-(trifluoromethoxy)-1-benzofuran-7-yl]methoxy}-2,3-dimethylphenyl)propanoic acid] the value was 20 nM; for `Cc1c(CCC(=O)O)ccc(OCc2cc(F)cc3cc(C(F)(F)F)oc23)c1C` [Compound 4, 3-(4-{[5-Fluoro-2-(trifluoromethyl)-1-benzofuran-7-yl]methoxy}-2,3-dimethylphenyl)propanoic acid], 279 nM. With `Cc1oc2c(COc3ccc(CCC(=O)O)c(C)c3C)cc(F)cc2c1F` [Compound 5, 3-{4-[(3,5-Difluoro-2-methyl-1-benzofuran-7-yl)methoxy]-2,3-dimethylphenyl}propanoic acid], the EC50 stood at 1240 nM. To `Cc1c(CCC(=O)O)ccc(OCc2cc(Cl)cc3cnn(C)c23)c1C` [Compound 7, 3-{4-[(5-Chloro-1-methyl-1H-indazol-7-yl)methoxy]-2,3-dimethylphenyl}propanoic acid] belongs 124 nM. In the case of `Cc1c(CCC(=O)O)ccc(OCc2cc(Cl)cc3cn(C)nc23)c1C` [Compound 8, 3-{4-[(5-Chloro-2-methyl-2H-indazol-7-yl)methoxy]-2,3-dimethylphenyl}propanoic acid], the half-maximal effective concentration (EC50) stood at 297 nM. For `CCc1cc2cc(F)cc(COc3c(F)cc(CCC(=O)O)cc3F)c2o1` [Compound 17, 3-{4-[(2-Ethyl-5-fluoro-1-benzofuran-7-yl)methoxy]-3,5-difluorophenyl}propanoic acid] the value was 345 nM; for `Cc1c(CCC(=O)O)ccc(OCc2cc(F)cc3cc(C4CCCC4)oc23)c1C` [Compound 18, 3-{4-[(2-Cyclopentyl-5-fluoro-1-benzofuran-7-yl)methoxy]-2,3-dimethylphenyl}propanoic acid], 653 nM. Take `COCc1cc2cc(F)cc(COc3ccc(CCC(=O)O)c(C)c3C)c2o1` [Compound 21, 3-(4-{[5-Fluoro-2-(methoxymethyl)-1-benzofuran-7-yl]methoxy}-2,3-dimethylphenyl)propanoic acid]: the EC50 turned out to be 159 nM. For `Cc1c(CCC(=O)O)ccc(OCc2cc(F)cc3cc(C(C)C)oc23)c1C` [Compound 22, 3-(4-{[5-Fluoro-2-(1-methylethyl)-1-benzofuran-7-yl]methoxy}-2,3-dimethylphenyl)propanoic acid] the value was 166 nM; for `Cc1c(CCC(=O)O)ccc(OCc2cc(F)cc3cc(CC(C)C)oc23)c1C` [Compound 23, 3-(4-{[5-Fluoro-2-(2-methylpropyl)-1-benzofuran-7-yl]methoxy}-2,3-dimethylphenyl)propanoic acid], 339 nM. In the case of `CCOc1cc(COc2ccc(CCC(=O)O)c(C)c2C)c2oc(CC)cc2c1` [Compound 29, 3-{4-[(5-Ethoxy-2-ethyl-1-benzofuran-7-yl)methoxy]-2,3-dimethylphenyl}propanoic acid], the 50% effective concentration (EC50) came to 107 nM. For `CCCc1cc2cc(Cl)cc(COc3ccc(CCC(=O)O)c(C)c3C)c2o1` [Compound 31, 3-{4-[(5-Chloro-2-propyl-1-benzofuran-7-yl)methoxy]-2,3-dimethylphenyl}propanoic acid] the value was 44 nM; for `Cc1c(CCC(=O)O)ccc(OCc2cc(F)cc3cc(C(F)F)oc23)c1C` [Compound 32, 3-(4-{[2-(Difluoromethyl)-5-fluoro-1-benzofuran-7-yl]methoxy}-2,3-dimethylphenyl)propanoic acid], 277 nM; for `CCCc1cc2cc(OC(F)(F)F)cc(COc3ccc(CCC(=O)O)c(C)c3C)c2o1` [Compound 35, 3-(2,3-Dimethyl-4-{[2-propyl-5-(trifluoromethoxy)-1-benzofuran-7-yl]methoxy}phenyl)propanoic acid], 40 nM. Turning to `CCCc1cc2cc(C(F)(F)F)cc(COc3ccc(CCC(=O)O)c(C)c3C)c2o1` [Compound 37, 3-(2,3-Dimethyl-4-{[2-propyl-5-(trifluoromethyl)-1-benzofuran-7-yl]methoxy}phenyl)propanoic acid], the 50% effective concentration (EC50) came out at 43 nM.

Turning to `CCCc1cc2cc(Cl)cc(COc3ccc(CCC(=O)O)c(C)c3C#N)c2o1` [Compound 41, 3-{4-[(5-Chloro-2-propyl-1-benzofuran-7-yl)methoxy]-3-cyano-2-methylphenyl}propanoic acid], the EC50 was 291 nM.

Turning to `CCc1cc2cc(Cl)c(OC)c(COc3ccc(CCC(=O)O)c(C)c3C)c2o1` [Compound 44, 3-{4-[(5-Chloro-2-ethyl-6-methoxy-1-benzofuran-7-yl)methoxy]-2,3-dimethylphenyl}propanoic acid], the EC50 was 27 nM. Consider `CCc1cc2cc(Br)cc(COc3ccc(CCC(=O)O)c(C)c3C)c2o1` [Compound 45, 3-{4-[(5-Bromo-2-ethyl-1-benzofuran-7-yl)methoxy]-2,3-dimethylphenyl}propanoic acid], for which the EC50 was determined as 24 nM. For `CCCc1cc2cc(I)cc(COc3ccc(CCC(=O)O)c(C)c3C)c2o1` [Compound 47, 3-{4-[(5-Iodo-2-propyl-1-benzofuran-7-yl)methoxy]-2,3-dimethylphenyl}propanoic acid] the value was 22 nM; for `Cc1c(CCC(=O)O)ccc(OCc2cc(F)cc3cc(C#N)oc23)c1C` [Compound 49, 3-{4-[(2-Cyano-5-fluoro-1-benzofuran-7-yl)methoxy]-2,3-dimethylphenyl}propanoic acid], 237 nM. For `CCCc1cc(OCc2cc(OC(F)(F)F)cc3cc(CC)oc23)c(F)cc1CCC(=O)O` [Compound 50, 3-(4-{[2-Ethyl-5-(trifluoromethoxy)-1-benzofuran-7-yl]methoxy}-5-fluoro-2-propylphenyl)propanoic acid] the value was 59 nM; for `CCc1cc2cc(OC(F)(F)F)cc(COc3ccc(CCC(=O)O)c4c3CCC4)c2o1` [Compound 52, 3-(7-{[2-Ethyl-5-(trifluoromethoxy)-1-benzofuran-7-yl]methoxy}-2,3-dihydro-1H-inden-4-yl)propanoic acid], 29 nM.

As for `CCc1cc2cc(Cl)cc(COc3ccc(CCC(=O)O)c4c3CCC4)c2o1` [Compound 54, 3-{7-[(5-Chloro-2-ethyl-1-benzofuran-7-yl)methoxy]-2,3-dihydro-1H-inden-4-yl}propanoic acid], the concentration for a half-maximal effect (EC50) amounted to 36 nM. To `Cc1cc2cc(OC(F)(F)F)cc(COc3ccc(CCC(=O)O)c4c3CCC4)c2o1` [Compound 55, 3-(7-{[2-Methyl-5-(trifluoromethoxy)-1-benzofuran-7-yl]methoxy}-2,3-dihydro-1H-inden-4-yl)propanoic acid] belongs 28 nM.

Turning to `CCc1cc2cc(OC(F)F)cc(COc3ccc(CCC(=O)O)c(C)c3C)c2o1` [Compound 57, 3-(4-{[5-(Difluoromethoxy)-2-ethyl-1-benzofuran-7-yl]methoxy}-2,3-dimethylphenyl)propanoic acid], the EC50 was 17 nM. Consider `CC#Cc1cc(COc2ccc(CCC(=O)O)c(C)c2C)c2oc(CCC)cc2c1` [Compound 58, 3-{2,3-Dimethyl-4-[(2-propyl-5-prop-1-yn-1-yl-1-benzofuran-7-yl)methoxy]phenyl}propanoic acid], for which the EC50 amounted to 87 nM.
